According to PubChem BioAssay (NCI):
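Each compound was tested at five concentrations against cells in 96-well plates for 48 hours. TGI: total growth inhibition.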

Columns and labels:
Test in all cases: NCI-60 cell line screen, 48 h
MDA-MB-435 = tested on: MDA-MB-435
MCF7 breast = tested on: MCF7 breast
BT-549 breast = tested on: BT-549 breast
OVCAR-8 ovarian = tested on: OVCAR-8 ovarian
SW-620 colon = tested on: SW-620 colon
SK-OV-3 ovarian = tested on: SK-OV-3 ovarian
COLO 205 colon = tested on: COLO 205 colon
UO-31 renal = tested on: UO-31 renal
A549 NSCLC = tested on: A549 NSCLC
HCT-15 colon = tested on: HCT-15 colon
CAKI-1 renal = tested on: CAKI-1 renal
OVCAR-4 ovarian = tested on: OVCAR-4 ovarian
PC-3 prostate = tested on: PC-3 prostate
KM12 colon = tested on: KM12 colon
SR leukemia = tested on: SR leukemia
NCI-H23 lung = tested on: NCI-H23 lung
HOP-62 NSCLC = tested on: HOP-62 NSCLC
SF-539 CNS = tested on: SF-539 CNS
SK-MEL-2 melanoma = tested on: SK-MEL-2 melanoma
HCC-2998 colon = tested on: HCC-2998 colon

Compound	TGI (MDA-MB-435) [µM]	TGI (MCF7 breast) [µM]	TGI (BT-549 breast) [µM]	TGI (OVCAR-8 ovarian) [µM]	TGI (SW-620 colon) [µM]	TGI (SK-OV-3 ovarian) [µM]	TGI (COLO 205 colon) [µM]	TGI (UO-31 renal) [µM]	TGI (A549 NSCLC) [µM]	TGI (HCT-15 colon) [µM]	TGI (CAKI-1 renal) [µM]	TGI (OVCAR-4 ovarian) [µM]	TGI (PC-3 prostate) [µM]	TGI (KM12 colon) [µM]	TGI (SR leukemia) [µM]	TGI (NCI-H23 lung) [µM]	TGI (HOP-62 NSCLC) [µM]	TGI (SF-539 CNS) [µM]	TGI (SK-MEL-2 melanoma) [µM]	TGI (HCC-2998 colon) [µM]
COc1cc2c(cc1OC)C1Cc3ccccc3CCN1CC2 (configuration not stated)	> 100	> 100	> 100	> 100	> 100	> 100	> 100	> 100	> 100	> 100	> 100	> 100	> 100	> 100	> 100	> 100	> 100	> 100	> 100	> 100
CSc1c(C(=O)Nc2ccc(C)cc2)c(N)nn1-c1ccccc1	> 100	> 100	> 100	–	> 100	> 100	> 100	> 100	> 100	> 100	49.9	> 100	> 100	–	> 100	> 100	> 100	92.1	> 100	> 100
CC(C)Nc1[nH]c(C(=O)c2ccccc2)c(N)c1C(=S)Nc1ccccc1	99.1	> 100	> 100	> 100	> 100	> 100	97.5	> 100	> 100	> 100	> 100	> 100	> 100	> 100	> 100	> 100	> 100	> 100	52.1	46.2
OC1c2ccccc2[C@@H]2[C@H]1[C@@H](c1ccccc1)C1(Cc3ccccc3C1O)[C@H]2c1ccccc1 (some centres not stated)	7.73	4.7	28.6	15.3	17.4	23	3.62	20.3	14.2	15.1	22.8	17.4	8.87	8.25	4.49	18.4	22.9	26.6	20	4.58
Nc1nc(Cl)c(C=O)c(NCC2(CO)CC(CCc3ccccc3)C2)n1 (configuration not stated)	17.9	51.8	27.5	6.03	15.3	24.4	24.2	2.91	25.5	13.8	3.14	4.21	16.3	28.5	4.15	5.49	28.6	17.8	19.2	4.94
CC[C@@H](CCCC[C@@H]1CC[C@H]2CC(=O)C[C@@H]12)OC	> 100	> 100	> 100	> 100	> 100	> 100	> 100	–	> 100	> 100	> 100	> 100	> 100	> 100	> 100	> 100	> 100	> 100	> 100	> 100
CC(=O)Nc1ccc(Nc2cc(=O)n(C)c(=O)[nH]2)cc1	> 100	> 100	> 100	> 100	> 100	> 100	> 100	> 100	> 100	> 100	> 100	> 100	> 100	> 100	> 100	> 100	> 100	> 100	> 100	> 100
CC(C)(C)c1cc(C(=O)/C=C/c2ccc(O)c(O)c2O)cc(C(C)(C)C)c1O	36.7	27.2	28.2	> 63.7	17.9	53.7	26.3	13.9	40.9	14.8	15.6	26.5	15.7	11.6	4.67	20	27.8	10.2	19.2	11.7
COC(=O)C1Cc2c([nH]c3ccccc23)C(c2cccc(O)c2)N1 (configuration not stated)	36.6	> 100	72	> 100	60.8	> 100	90.3	> 100	> 100	> 100	> 100	> 100	80.3	> 100	76.1	96.8	> 100	> 100	83.3	48.3
Cc1ccc(/C=C2\N=C(N3CCCCC3)NC2=O)cc1	> 100	> 100	> 100	> 100	> 100	> 100	> 100	> 100	> 100	> 100	> 100	> 100	> 100	> 100	> 100	> 100	> 100	> 100	> 100	> 100
CCOC(=O)N1CCN(Cc2cc(=O)n3cc(C)ccc3n2)CC1	> 100	> 100	> 100	> 100	> 100	> 100	> 100	> 100	> 100	> 100	> 100	> 100	> 100	> 100	> 100	> 100	> 100	> 100	> 100	> 100
Oc1c(C2=NNC(c3cccs3)C2)ccc2ccccc12 (configuration not stated)	40	51.7	> 100	94.2	70.3	> 100	37.7	> 100	> 100	> 100	> 100	> 100	> 100	36.2	29.3	> 100	99.4	43.1	> 100	34.2
N#Cc1cccc(C2ON=C(c3ccc([N+](=O)[O-])cc3)N2C23CC4CC(CC(C4)C2)C3)c1 (configuration not stated)	> 100	> 100	> 100	> 100	> 100	> 100	> 100	> 100	> 100	> 100	> 100	76.8	> 100	> 100	> 100	> 100	> 100	> 100	> 100	> 100
O=C(c1ccc(Cl)cc1Cl)N(Cc1cccnc1)C(=S)N(Cc1cccnc1)C(=O)c1ccc(Cl)cc1Cl	66	12.3	14.8	13.5	80.5	37.1	4.09	12.9	38	15.4	34.4	7.99	7.55	18.8	> 100	44.6	7.12	4.43	13.7	8.97
CSC(SC)=C1C(=O)NN=C1C	> 100	> 100	> 100	–	> 100	> 100	> 100	> 100	> 100	> 100	> 100	> 100	> 100	> 100	> 100	> 100	> 100	> 100	> 100	> 100
CC(=O)OCCC1c2ccccc2-n2nc(-c3ccccc3)c(O)c21 (configuration not stated)	32.3	22.9	33.3	55.9	31.6	–	40.1	30.8	37.3	55.1	33.6	40.5	34.3	38.5	38.7	34.5	30.1	44.7	96.6	56
COc1ccc(NC(=O)CC(=O)n2nc(C)c(N=Nc3ccc(C)c(C)c3)c2C)cc1	> 100	> 100	> 100	> 100	> 100	27.7	> 100	54.8	> 100	–	> 100	> 100	> 100	> 100	> 100	> 100	> 100	> 100	> 100	> 100
O=c1[nH]c2cc(C(F)(F)F)ccc2nc1Cc1ccccc1	> 100	> 100	> 100	> 100	> 100	87.4	> 100	> 100	–	> 100	> 100	> 100	> 100	> 100	> 100	68.8	95.9	> 100	> 100	> 100
O=C1C(C(O)(C(F)(F)Cl)C(F)(F)Cl)CCC1C(O)(C(F)(F)Cl)C(F)(F)Cl (configuration not stated)	> 10	> 10	> 10	> 10	> 10	> 10	> 10	–	> 10	> 10	9.69	> 10	> 10	> 10	> 10	6.19	> 10	8.56	5.72	> 10
